Assay results published in patent US11123357B2, “Methods and compositions for treating oral mucositis” (Lakewood Amedex, Inc., priority 2018, dated 2021).

Assays:
[1] = test system: oral mucositis induced by acute radiation; assay: Oral mucositis induced by acute radiation in hamsters (blinded mucositis scoring); type: in vivo, Syrian Golden Hamsters; design: key to peak mean mucositis score: 0 = normal, 5 = severe ulceration (photographic scale); settings: for % Days ≥ 3 / Days < 3 (animal days with mucositis score <3) / Days ≥ 3 (animal days with mucositis score ≥3): through Day 28
Text: The objective of the study was to test the efficacy of Nu-8 in the treatment of oral mucositis induced by acute radiation in hamsters.
Normal male Syrian Golden Hamsters (Charles River Laboratories), aged 5 to 6 weeks, with average body weight (±SD) of 92.83±3.36 g at study commencement, were used. Animals were individually numbered using an ear punch and housed in small groups. Animals were acclimatized prior to study commencement. During this period, the animals were observed daily in order to reject animals that were in poor condition.
Animals were randomly and prospectively divided into three (3) groups of eight (8) animals each prior to irradiation. Each animal was identified by an ear punch corresponding to an individual number. A cage card was used to identify each cage or label marked with the study number (LKW-01), treatment group number and animal numbers.
Formulation: • 1. Make fresh daily. Weigh out necessary amount of compound and dissolve in normal saline. Titrate with citric acid to bring pH of solution down to approximate 3.5 (pH range 3 to 4). • 2. The vehicle administered to animals in Group 1 was also titrated with citric acid to a pH of ˜3.5 (pH range 3 to 4).
Mucositis was induced using a single of radiation (40 Gy) administered on Day 0. Radiation was generated with a 160-kilovolt potential (18.75-ma) source at a focal distance of 10 cm, hardened with a 3.0 mm Al filtration system. Irradiation targeted the left buccal pouch mucosa at a rate of 2-2.5 Gy/minute. Prior to irradiation, animals were anesthetized with an intraperitoneal injection of ketamine (160 mg/kg) and xylazine (8 mg/kg). The left buccal pouch was everted, fixed and isolated using a lead shield.
Starting on Day 6 and continuing every second day thereafter (Days 8, 10, 12, 14, 16, 18, 20, 22, 24, 26, 28) each animal was photographed and evaluated for mucositis scoring. For the evaluation of mucositis, the animals were anesthetized with an inhalation anesthetic and the left pouch everted. Mucositis was scored visually by comparison to a validated photographic scale (FIGS. 1A-1F), ranging from 0 for normal, to 5 for severe ulceration (clinical scoring). In descriptive terms, this scale is defined as follows: […]
A score of 1-2 is considered to represent a mild stage of the disease, whereas a score of 3-5 is considered to indicate moderate to severe ulcerative mucositis. Following visual clinical scoring, a photograph was taken of each animal's mucosa using a standardized technique. At the conclusion of the experiment, the photographs were randomly numbered and scored by two independent, trained observers who graded the images in blinded fashion using the above-described scale (blinded scoring). For each photograph, the actual blinded score was based on the average of the 2 observers' scores. Only the scores from the blinded, photographic evaluation were reported and used for statistical analyses. Hamsters reaching a mucositis severity score of 4 or higher received buprenorphine (0.5 mg/kg) SC twice a day for 48 hours or until score dropped below 4. Statistical Analyses
Using the blinded photographs, statistical differences between treatment groups were determined using Mann-Whitney Rank Sum test and chi-square analysis with a critical value of 0.05. It was anticipated that up to 10% animal death may occur, primarily as a result of the administration of anesthetics. However, the number of animals expected to remain alive at Day 28 (6 per treatment group) was considered acceptable for statistical evaluation.
The difference in the number of days hamsters in each group have severe mucositis (score ≥3) was analyzed. On each day the animals were scored (evaluation day), the number of animals with a blinded mucositis score of ≥3 in each treatment group was compared to the Vehicle control group. Differences were analyzed on a daily as well as a cumulative basis. […]

[2] = Mean daily percent body weight change in irradiated hamsters; type: in vivo, Syrian Golden Hamsters; settings: Group 3 (10% Nu-8, TID topical); p<0.05
Text: The mean daily percent body weight change data are shown in FIG. 2 for animals in all groups. Animals steadily gained weight throughout the duration of the study.

Structure (SMILES): CCCCOP(=O)(O)OC[C@H]1O[C@@H](n2ccc(N)nc2=O)C[C@@H]1OP(=O)(O)OCCCC [Nu-8, ((2R,3S,5R)-5-(4-amino-2-oxopyrimidin-1(2H)-yl)-3-((butoxyoxidophosphor-yl)oxy)tetrahydrofuran-2-yl)methyl butyl phosphate]
- days of significant improvement in mucositis scores vs. Vehicle (Mann-Whitney rank sum) ([1]; 1% Nu-8 (Group 2)): one day of significant improvement
- Chi Sq vs. Vehicle (animal days with score ≥3) ([1]; 1% Nu-8, TID topical): 2.094
- Percent Ulceration by Day (Score ≥ 3) ([1]; 1% Nu-8, TID topical, Day 6): 0.0%
- Percent Ulceration by Day (Score ≥ 3) ([1]; 1% Nu-8, TID topical, Day 8): 0.0%
- Percent Ulceration by Day (Score ≥ 3) ([1]; 1% Nu-8, TID topical, Day 10): 0.0%
- Percent Ulceration by Day (Score ≥ 3) ([1]; 1% Nu-8, TID topical, Day 12): 0.0%
- Percent Ulceration by Day (Score ≥ 3) ([1]; 1% Nu-8, TID topical, Day 14): 12.5%
- Percent Ulceration by Day (Score ≥ 3) ([1]; 1% Nu-8, TID topical, Day 16): 50.0%
- Percent Ulceration by Day (Score ≥ 3) ([1]; 1% Nu-8, TID topical, Day 18): 87.5%
- Percent Ulceration by Day (Score ≥ 3) ([1]; 1% Nu-8, TID topical, Day 20): 87.5%
- Percent Ulceration by Day (Score ≥ 3) ([1]; 1% Nu-8, TID topical, Day 22): 87.5%
- Percent Ulceration by Day (Score ≥ 3) ([1]; 1% Nu-8, TID topical, Day 24): 87.5%
- Percent Ulceration by Day (Score ≥ 3) ([1]; 1% Nu-8, TID topical, Day 26): 50.0%
- Percent Ulceration by Day (Score ≥ 3) ([1]; 1% Nu-8, TID topical, Day 28): 25.0%
- peak mean mucositis score ([1]; 1% Nu-8, TID topical, on Day 18): 2.88±0.13
- % Days ≥ 3 ([1]; 1% Nu-8, TID topical): 40.63%
- Days < 3 (animal days with mucositis score <3) ([1]; 1% Nu-8, TID topical): 57
- Days ≥ 3 (animal days with mucositis score ≥3) ([1]; 1% Nu-8, TID topical): 39
- days of significant improvement in mucositis scores vs. Vehicle (Mann-Whitney rank sum) ([1]; 10% Nu-8 (Group 3)): multiple days of significant improvement
- Chi Sq vs. Vehicle (animal days with score ≥3) ([1]; 10% Nu-8, TID topical): 30.762
- disease severity in comparison to vehicle-dosed animals ([1]; 10% Nu-8, TID topical): robust mitigation of disease severity
- Percent Ulceration by Day (Score ≥ 3) ([1]; 10% Nu-8, TID topical, Day 6): 0.0%
- Percent Ulceration by Day (Score ≥ 3) ([1]; 10% Nu-8, TID topical, Day 8): 0.0%
- Percent Ulceration by Day (Score ≥ 3) ([1]; 10% Nu-8, TID topical, Day 10): 0.0%
- Percent Ulceration by Day (Score ≥ 3) ([1]; 10% Nu-8, TID topical, Day 12): 0.0%
- Percent Ulceration by Day (Score ≥ 3) ([1]; 10% Nu-8, TID topical, Day 14): 12.5%
- Percent Ulceration by Day (Score ≥ 3) ([1]; 10% Nu-8, TID topical, Day 16): 25.0%
- Percent Ulceration by Day (Score ≥ 3) ([1]; 10% Nu-8, TID topical, Day 18): 25.0%
- Percent Ulceration by Day (Score ≥ 3) ([1]; 10% Nu-8, TID topical, Day 20): 25.0%
- Percent Ulceration by Day (Score ≥ 3) ([1]; 10% Nu-8, TID topical, Day 22): 25.0%
- Percent Ulceration by Day (Score ≥ 3) ([1]; 10% Nu-8, TID topical, Day 24): 12.5%
- Percent Ulceration by Day (Score ≥ 3) ([1]; 10% Nu-8, TID topical, Day 26): 0.0%
- Percent Ulceration by Day (Score ≥ 3) ([1]; 10% Nu-8, TID topical, Day 28): 0.0%
- peak mean mucositis score ([1]; 10% Nu-8, TID topical, on Days 16 & 18): 2.29±0.18
- % Days ≥ 3 ([1]; 10% Nu-8, TID topical): 11.90%
- Days < 3 (animal days with mucositis score <3) ([1]; 10% Nu-8, TID topical): 74
- Days ≥ 3 (animal days with mucositis score ≥3) ([1]; 10% Nu-8, TID topical): 10
- percentage of days with a score of ≥3 in comparison to the Vehicle control group ([1]; 10% Nu-8, chi-square analysis): statistically different
- percent ulceration in comparison to vehicle-dosed animal ([1]; both dose concentrations (1% and 10%), numerous days): percent ulceration that was lower in comparison to vehicle-dosed animal
- disease onset (mean daily mucositis scores) ([1]; both groups treated with Nu-8 (1% and 10%), more so with 10%): modest attenuation of disease onset
- mean percent weight change vs. vehicle group (AUC analysis, one-way ANOVA) [2]: statistically significant lower mean percent weight change
